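Interpolation was linear, between the two tested concentrations surrounding the appropriate level; five concentrations were tested over 48 hours in 96-well plates. At the TGI there is no net growth.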
Assays:
Assay in all cases: NCI tumour cell line growth inhibition, 48 h
[1] = system: HOP-62 NSCLC
[2] = system: HCC-2998 colon
[3] = system: OVCAR-8 ovarian
[4] = system: NCI-H23 lung
[5] = system: RXF 393 renal
[6] = system: CCRF-CEM leukemia
[7] = system: OVCAR-5 ovarian
[8] = system: HOP-92 NSCLC
[9] = system: SK-OV-3 ovarian
[10] = system: NCI-H460 lung
[11] = system: SF-295 CNS
[12] = system: OVCAR-4 ovarian

Compound | TGI [1] | TGI [2] | TGI [3] | TGI [4] | TGI [5] | TGI [6] | TGI [7] | TGI [8] | TGI [9] | TGI [10] | TGI [11] | TGI [12]
O=C(Nc1ccc(Cl)cc1Cl)c1cc2nc3ccccc3c(=O)n2c2ccccc12 | > 10 µM | > 10 µM | > 10 µM | > 10 µM | > 10 µM | > 10 µM | > 10 µM | > 10 µM | > 10 µM | > 10 µM | > 10 µM | –
Cc1cc(O)c2c(c1)C(=O)C=C(Br)C2=O | > 100 µM | > 58.1 µM | 42.3 µM | 35.5 µM | – | 4.1 µM | 29.7 µM | 27 µM | > 100 µM | 45.9 µM | > 60.5 µM | 24 µM
O=C(O)c1cccc(S(=O)(=O)NN2C(=O)CSC2c2ccccc2Cl)c1 (configuration not stated) | > 100 µM | > 100 µM | > 100 µM | > 100 µM | > 100 µM | > 100 µM | > 100 µM | > 100 µM | > 100 µM | > 100 µM | > 100 µM | –
Clc1ccc(/C=C/c2nc(-c3ccc(Cl)cc3)cn3c2nc2ccccc23)cc1 | > 100 µM | > 100 µM | – | > 100 µM | > 100 µM | > 100 µM | > 100 µM | > 100 µM | > 100 µM | > 100 µM | – | > 100 µM
c1ccc2c(c1)ncn2CCn1ccnc1 | > 100 µM | > 100 µM | > 100 µM | > 100 µM | > 100 µM | > 100 µM | > 100 µM | – | > 100 µM | > 100 µM | > 100 µM | > 100 µM
N#Cc1nc(-c2ccccc2O)oc1N | > 100 µM | – | > 100 µM | – | > 100 µM | > 100 µM | > 100 µM | > 100 µM | > 100 µM | – | – | –
COc1cc(CCC(=O)O)c2cc3ccccc3cc2c1O | 32.7 µM | 65.2 µM | 30.6 µM | 51.6 µM | – | 13.8 µM | 45.9 µM | 88.3 µM | > 100 µM | 47.2 µM | 37.6 µM | 29.7 µM
CC(=O)O[C@@H]1[C@@H](C)[C@]2(CC(c3ccoc3)OC2O)C2CCC3O[C@]3(C)[C@]2(C)[C@@H]1OC(C)=O (some centres not stated) | – | – | > 100 µM | > 100 µM | > 100 µM | 61.5 µM | > 100 µM | > 100 µM | > 100 µM | > 100 µM | > 100 µM | > 100 µM
CC(=O)OCC1=C2C(OC(=O)C(C)C)CC3(COC(C)=O)OC3/C=C\C3(C)OC3C2OC1=O (configuration not stated) | > 100 µM | > 100 µM | > 100 µM | > 100 µM | > 100 µM | > 100 µM | > 100 µM | – | > 100 µM | > 100 µM | > 100 µM | > 100 µM
c1ccc(N=C2C(=Nc3ccccc3)N(C3CCCCC3)C(=NC3CCCCC3)N2c2ccccc2)cc1 | > 100 µM | > 100 µM | > 100 µM | > 100 µM | > 100 µM | – | > 100 µM | > 100 µM | – | > 100 µM | – | –
CC(=O)N1N=C(c2ccccc2Nc2ccccc2C2=NN(C(C)=O)C(c3ccccc3)O2)OC1c1ccccc1 (configuration not stated) | > 100 µM | > 100 µM | > 100 µM | > 100 µM | > 100 µM | – | > 100 µM | > 100 µM | > 100 µM | > 100 µM | > 100 µM | > 100 µM
O=C1CC(NCCCNC2CC(=O)c3c(Br)sc(Br)c32)c2c(Br)sc(Br)c21 (configuration not stated) | 14 µM | – | – | 4.36 µM | 3.62 µM | – | 4.85 µM | – | 14.9 µM | > 100 µM | 14.3 µM | 12.7 µM
CC(C)[Si](Oc1cc2c3c(ccc2c(O)c1[C@@H](C)CO[Si](C)(C)C(C)(C)C)C(C)(C)CCC3)(C(C)C)C(C)C | > 100 µM | – | > 100 µM | > 100 µM | > 100 µM | > 100 µM | > 100 µM | > 100 µM | > 100 µM | > 100 µM | > 100 µM | > 100 µM
CC(C)CC(NC=O)C(=O)NC(Cc1ccccc1)NC(=O)CNC(=O)C(C)NC(=O)OC(C)(C)C (configuration not stated) | > 100 µM | – | > 100 µM | > 100 µM | > 100 µM | – | > 100 µM | > 100 µM | > 100 µM | > 100 µM | > 100 µM | > 100 µM
O=C(OCC(Cl)(Cl)Cl)N1CC[C@@H](C2CCCCC2)C1 | 38 µM | 36.7 µM | – | 64.2 µM | 37.1 µM | 46.7 µM | 50.6 µM | – | > 100 µM | 43.8 µM | 38.9 µM | 42.2 µM
Cc1ccc(S(=O)(=O)N/N=C2/C3C(CC2(C)C)C2(C)CCCC3(C)C2O)cc1 (configuration not stated) | > 100 µM | – | > 100 µM | 42.8 µM | – | 59.4 µM | – | 33.3 µM | 44.8 µM | 37.7 µM | 29.6 µM | 43.3 µM
c1ccc2c(c1)ccc1nc3ccccn3c12 | > 100 µM | > 100 µM | > 100 µM | > 100 µM | > 100 µM | > 100 µM | > 100 µM | > 100 µM | > 100 µM | > 100 µM | > 100 µM | –
CCCC(=O)n1[nH]c(=O)n(C(C)(C)C)c1=O | > 100 µM | > 100 µM | > 100 µM | > 100 µM | > 100 µM | > 100 µM | > 100 µM | – | > 100 µM | > 100 µM | > 100 µM | > 100 µM
CNC(=O)C1CCC(=O)N1CN(C(C)=O)c1ccccc1 (configuration not stated) | > 100 µM | – | > 100 µM | > 100 µM | > 100 µM | 0.426 µM | > 100 µM | > 100 µM | > 100 µM | > 100 µM | > 100 µM | > 100 µM
c1csc(-c2sc(-c3ccsc3)cc2Cc2ccsc2)c1 | > 10 µM | > 10 µM | > 10 µM | > 10 µM | > 10 µM | > 10 µM | – | > 10 µM | > 10 µM | – | > 10 µM | > 10 µM
CC1=C(S(=O)c2ccc(C)cc2)CCC2(CCCCO2)O1 (configuration not stated) | > 100 µM | > 100 µM | > 100 µM | > 100 µM | > 100 µM | – | > 100 µM | – | – | > 100 µM | > 100 µM | > 100 µM
